Laboratory results as given in article PMC6109843, “Novel Quinazolinone Inhibitors of ALK2 Flip between Alternate Binding Modes: Structure–Activity Relationship, Structural Characterization, Kinase Profiling, and Cellular Proof of Concept” (Journal of Medicinal Chemistry, 2018).

What was measured:
Assay in all cases: DiscoverX scanEDGE kinase panel
Type in all cases: binding
Conditions in all cases: Cmpd Conc 1000 nM, read-out: % Ctrl
ABL1EP = target: T1, ABL1EP (Homo sapiens, UniProt P00519)
T1 construct: purchased DiscoverX (DiscoveRx) KINOMEscan scanEDGE / KdELECT
Description: (§1) We hypothesized that inhibitors of the normal and flipped modes would display distinct selectivity profiles.
(§2) 1. 16 and 21 kinome selectivity data
(§3) (P – phosphorylated; nP – nonphosphorylated; % Ctrl values show the % of DNAEtagged
(§4) kinase which was not displaced from a solid supported ligand by a test compound relative to
(§5) untreated control, quantified by qPCR).
(§6) Please note: ALKs 1, 2, 3, 4, 5 and 6 are listed by their gene symbols: ACVRL1 (ALK1), ACVR1
(§7) (ALK2), BMPR1A (ALK3), ACVR1B (ALK4), TGFBR1 (ALK5) and BMPR1B (ALK6)
(§8) Cmpd DiscoverX Gene Symbol Entrez Gene Symbol % Ctrl Cmpd Conc (nM)

ABL1EnP = target: T2, ABL1EnP (Homo sapiens, UniProt P00519)
T2 construct: purchased DiscoverX (DiscoveRx) KINOMEscan scanEDGE / KdELECT
Description: as §1, §2, §3, §4, §5, §6, §7, §8

ABL2 = target: T3, ABL2 (Homo sapiens, UniProt P42684)
T3 construct: purchased DiscoverX (DiscoveRx) KINOMEscan scanEDGE / KdELECT
Description: as §1, §2, §3, §4, §5, §6, §7, §8

ACVR1B (ALK4) = target: T4, ACVR1B (ALK4) (Homo sapiens, UniProt P36896)
T4 construct: purchased DiscoverX (DiscoveRx) KINOMEscan scanEDGE / KdELECT
Description: as §1, §2, §3, §4, §5, §6, §7, §8

AURKB = target: T5, AURKB (Homo sapiens, UniProt Q96GD4)
T5 construct: purchased DiscoverX (DiscoveRx) KINOMEscan scanEDGE / KdELECT
Description: as §1, §2, §3, §4, §5, §6, §7, §8

AXL = target: T6, AXL (Homo sapiens, UniProt P30530)
T6 construct: purchased DiscoverX (DiscoveRx) KINOMEscan scanEDGE / KdELECT
Description: as §1, §2, §3, §4, §5, §6, §7, §8

BMPR1A (ALK3) = target: T7, BMPR1A (ALK3) (Homo sapiens, UniProt P36894)
T7 construct: purchased DiscoverX (DiscoveRx) KINOMEscan scanEDGE / KdELECT
Description: as §1, §2, §3, §4, §5, §6, §7, §8

BRAF = target: T8, BRAF (Homo sapiens, UniProt P15056)
T8 construct: purchased DiscoverX (DiscoveRx) KINOMEscan scanEDGE / KdELECT
Description: as §1, §2, §3, §4, §5, §6, §7, §8

BTK = target: T9, BTK (Homo sapiens, UniProt Q06187)
T9 construct: purchased DiscoverX (DiscoveRx) KINOMEscan scanEDGE / KdELECT
Description: as §1, §2, §3, §4, §5, §6, §7, §8

CDK3 = target: T10, CDK3 (Homo sapiens, UniProt Q00526)
T10 construct: purchased DiscoverX (DiscoveRx) KINOMEscan scanEDGE / KdELECT
Description: as §1, §2, §3, §4, §5, §6, §7, §8

DYRK1B = target: T11, DYRK1B (Homo sapiens, UniProt Q9Y463)
T11 construct: purchased DiscoverX (DiscoveRx) KINOMEscan scanEDGE / KdELECT
Description: as §1, §2, §3, §4, §5, §6, §7, §8

EGFR = target: T12, EGFR (Homo sapiens, UniProt P00533)
T12 construct: purchased DiscoverX (DiscoveRx) KINOMEscan scanEDGE / KdELECT
Description: as §1, §2, §3, §4, §5, §6, §7, §8

EPHA2 = target: T13, EPHA2 (Homo sapiens, UniProt P29317)
T13 construct: purchased DiscoverX (DiscoveRx) KINOMEscan scanEDGE / KdELECT
Description: as §1, §2, §3, §4, §5, §6, §7, §8

ERBB2 = target: T14, ERBB2 (Homo sapiens, UniProt P04626)
T14 construct: purchased DiscoverX (DiscoveRx) KINOMEscan scanEDGE / KdELECT
Description: as §1, §2, §3, §4, §5, §6, §7, §8

ERBB4 = target: T15, ERBB4 (Homo sapiens, UniProt Q15303)
T15 construct: purchased DiscoverX (DiscoveRx) KINOMEscan scanEDGE / KdELECT
Description: as §1, §2, §3, §4, §5, §6, §7, §8

ERK1 = target: T16, ERK1 (Homo sapiens, UniProt P27361)
T16 construct: purchased DiscoverX (DiscoveRx) KINOMEscan scanEDGE / KdELECT
Description: as §1, §2, §3, §4, §5, §6, §7, §8

FAK = target: T17, FAK (Homo sapiens, UniProt Q05397)
T17 construct: purchased DiscoverX (DiscoveRx) KINOMEscan scanEDGE / KdELECT
Description: as §1, §2, §3, §4, §5, §6, §7, §8

FGFR2 = target: T18, FGFR2 (Homo sapiens, UniProt P21802)
T18 construct: purchased DiscoverX (DiscoveRx) KINOMEscan scanEDGE / KdELECT
Description: as §1, §2, §3, §4, §5, §6, §7, §8

FYN = target: T19, FYN (Homo sapiens, UniProt P06241)
T19 construct: purchased DiscoverX (DiscoveRx) KINOMEscan scanEDGE / KdELECT
Description: as §1, §2, §3, §4, §5, §6, §7, §8

GSK3B = target: T20, GSK3B (Homo sapiens, UniProt P49841)
T20 construct: purchased DiscoverX (DiscoveRx) KINOMEscan scanEDGE / KdELECT
Description: as §1, §2, §3, §4, §5, §6, §7, §8

IKKEbeta = target: T21, IKKEbeta (Homo sapiens, UniProt O14920)
T21 construct: purchased DiscoverX (DiscoveRx) KINOMEscan scanEDGE / KdELECT
Description: as §1, §2, §3, §4, §5, §6, §7, §8

JNK2 = target: T22, JNK2 (Homo sapiens, UniProt P45984)
T22 construct: purchased DiscoverX (DiscoveRx) KINOMEscan scanEDGE / KdELECT
Description: as §1, §2, §3, §4, §5, §6, §7, §8

KIT(V559D,T670I) = target: T23, KIT(V559D,T670I) (Homo sapiens, UniProt P10721, T670I/V559D)
T23 construct: purchased DiscoverX (DiscoveRx) KINOMEscan scanEDGE / KdELECT
Description: as §1, §2, §3, §4, §5, §6, §7, §8

LKB1 = target: T24, LKB1 (Homo sapiens, UniProt Q15831)
T24 construct: purchased DiscoverX (DiscoveRx) KINOMEscan scanEDGE / KdELECT
Description: as §1, §2, §3, §4, §5, §6, §7, §8

MAP3K4 = target: T25, MAP3K4 (Homo sapiens, UniProt Q9Y6R4)
T25 construct: purchased DiscoverX (DiscoveRx) KINOMEscan scanEDGE / KdELECT
Description: as §1, §2, §3, §4, §5, §6, §7, §8

MAPKAPK2 = target: T26, MAPKAPK2 (Homo sapiens, UniProt P49137)
T26 construct: purchased DiscoverX (DiscoveRx) KINOMEscan scanEDGE / KdELECT
Description: as §1, §2, §3, §4, §5, §6, §7, §8

MEK1 = target: T27, MEK1 (Homo sapiens, UniProt Q02750)
T27 construct: purchased DiscoverX (DiscoveRx) KINOMEscan scanEDGE / KdELECT
Description: as §1, §2, §3, §4, §5, §6, §7, §8

MET = target: T28, MET (Homo sapiens, UniProt P08581)
T28 construct: purchased DiscoverX (DiscoveRx) KINOMEscan scanEDGE / KdELECT
Description: as §1, §2, §3, §4, §5, §6, §7, §8

MINK = target: T29, MINK (Homo sapiens, UniProt Q8N4C8)
T29 construct: purchased DiscoverX (DiscoveRx) KINOMEscan scanEDGE / KdELECT
Description: as §1, §2, §3, §4, §5, §6, §7, §8

MKNK2 = target: T30, MKNK2 (Homo sapiens, UniProt Q9HBH9)
T30 construct: purchased DiscoverX (DiscoveRx) KINOMEscan scanEDGE / KdELECT
Description: as §1, §2, §3, §4, §5, §6, §7, §8

NEK6 = target: T31, NEK6 (Homo sapiens, UniProt Q9HC98)
T31 construct: purchased DiscoverX (DiscoveRx) KINOMEscan scanEDGE / KdELECT
Description: as §1, §2, §3, §4, §5, §6, §7, §8

PDGFRB = target: T32, PDGFRB (Homo sapiens, UniProt P09619)
T32 construct: purchased DiscoverX (DiscoveRx) KINOMEscan scanEDGE / KdELECT
Description: as §1, §2, §3, §4, §5, §6, §7, §8

PDPK1 = target: T33, PDPK1 (Homo sapiens, UniProt O15530)
T33 construct: purchased DiscoverX (DiscoveRx) KINOMEscan scanEDGE / KdELECT
Description: as §1, §2, §3, §4, §5, §6, §7, §8

PIM2 = target: T34, PIM2 (Homo sapiens, UniProt Q9P1W9)
T34 construct: purchased DiscoverX (DiscoveRx) KINOMEscan scanEDGE / KdELECT
Description: as §1, §2, §3, §4, §5, §6, §7, §8

PLK3 = target: T35, PLK3 (Homo sapiens, UniProt Q9H4B4)
T35 construct: purchased DiscoverX (DiscoveRx) KINOMEscan scanEDGE / KdELECT
Description: as §1, §2, §3, §4, §5, §6, §7, §8

PLK4 = target: T36, PLK4 (Homo sapiens, UniProt O00444)
T36 construct: purchased DiscoverX (DiscoveRx) KINOMEscan scanEDGE / KdELECT
Description: as §1, §2, §3, §4, §5, §6, §7, §8

RIPK2 = target: T37, RIPK2 (Homo sapiens, UniProt O43353)
T37 construct: purchased DiscoverX (DiscoveRx) KINOMEscan scanEDGE / KdELECT
Description: as §1, §2, §3, §4, §5, §6, §7, §8

TGFBR1 (ALK5) = target: T38, TGFBR1 (ALK5) (Homo sapiens, UniProt P36897)
T38 construct: purchased DiscoverX (DiscoveRx) KINOMEscan scanEDGE / KdELECT
Description: as §1, §2, §3, §4, §5, §6, §7, §8

VEGFR2 = target: T39, VEGFR2 (Homo sapiens, UniProt P35968)
T39 construct: purchased DiscoverX (DiscoveRx) KINOMEscan scanEDGE / KdELECT
Description: as §1, §2, §3, §4, §5, §6, §7, §8

p38Ebeta = target: T40, p38Ebeta (Homo sapiens, UniProt Q15759)
T40 construct: purchased DiscoverX (DiscoveRx) KINOMEscan scanEDGE / KdELECT
Description: as §1, §2, §3, §4, §5, §6, §7, §8

T27 sequence (Q02750 whole entry): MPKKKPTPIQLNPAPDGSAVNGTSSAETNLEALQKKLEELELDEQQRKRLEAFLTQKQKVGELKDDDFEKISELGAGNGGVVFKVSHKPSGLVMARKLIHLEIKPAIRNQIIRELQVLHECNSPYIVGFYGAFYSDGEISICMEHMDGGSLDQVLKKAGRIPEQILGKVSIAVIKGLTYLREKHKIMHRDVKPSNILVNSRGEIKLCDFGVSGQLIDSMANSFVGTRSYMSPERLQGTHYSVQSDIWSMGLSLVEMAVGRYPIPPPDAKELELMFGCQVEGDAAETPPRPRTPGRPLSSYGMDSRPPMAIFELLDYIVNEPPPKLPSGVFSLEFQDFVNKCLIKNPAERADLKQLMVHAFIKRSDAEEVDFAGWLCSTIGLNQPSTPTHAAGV
T32 sequence (P09619 33-1106): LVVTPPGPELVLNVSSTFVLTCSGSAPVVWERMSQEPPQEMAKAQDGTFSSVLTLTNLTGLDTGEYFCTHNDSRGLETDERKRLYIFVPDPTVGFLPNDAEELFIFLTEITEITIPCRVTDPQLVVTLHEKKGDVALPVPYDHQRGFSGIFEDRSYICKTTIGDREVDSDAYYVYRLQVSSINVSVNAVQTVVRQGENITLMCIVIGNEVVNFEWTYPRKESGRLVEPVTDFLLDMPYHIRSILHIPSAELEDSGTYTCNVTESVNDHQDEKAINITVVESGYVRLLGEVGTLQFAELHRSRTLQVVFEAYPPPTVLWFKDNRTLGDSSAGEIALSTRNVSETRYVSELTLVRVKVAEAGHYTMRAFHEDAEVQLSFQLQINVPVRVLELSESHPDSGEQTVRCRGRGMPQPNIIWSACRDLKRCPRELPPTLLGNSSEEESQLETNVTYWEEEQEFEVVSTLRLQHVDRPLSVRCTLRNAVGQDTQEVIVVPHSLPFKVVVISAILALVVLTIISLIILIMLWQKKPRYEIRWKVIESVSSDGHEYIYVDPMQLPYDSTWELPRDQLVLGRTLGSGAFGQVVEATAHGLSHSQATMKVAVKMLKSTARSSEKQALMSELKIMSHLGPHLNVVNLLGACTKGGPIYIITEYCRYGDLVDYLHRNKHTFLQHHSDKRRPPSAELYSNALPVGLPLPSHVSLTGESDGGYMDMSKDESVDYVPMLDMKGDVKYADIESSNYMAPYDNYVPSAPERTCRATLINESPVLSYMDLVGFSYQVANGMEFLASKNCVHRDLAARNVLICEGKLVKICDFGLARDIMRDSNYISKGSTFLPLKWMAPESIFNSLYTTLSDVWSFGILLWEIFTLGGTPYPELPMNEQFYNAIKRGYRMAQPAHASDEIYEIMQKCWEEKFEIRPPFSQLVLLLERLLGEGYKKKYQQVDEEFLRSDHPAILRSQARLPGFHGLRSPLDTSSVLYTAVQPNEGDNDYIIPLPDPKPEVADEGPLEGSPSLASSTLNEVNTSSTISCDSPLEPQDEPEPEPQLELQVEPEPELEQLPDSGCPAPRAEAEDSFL
T31 sequence (Q9HC98 whole entry): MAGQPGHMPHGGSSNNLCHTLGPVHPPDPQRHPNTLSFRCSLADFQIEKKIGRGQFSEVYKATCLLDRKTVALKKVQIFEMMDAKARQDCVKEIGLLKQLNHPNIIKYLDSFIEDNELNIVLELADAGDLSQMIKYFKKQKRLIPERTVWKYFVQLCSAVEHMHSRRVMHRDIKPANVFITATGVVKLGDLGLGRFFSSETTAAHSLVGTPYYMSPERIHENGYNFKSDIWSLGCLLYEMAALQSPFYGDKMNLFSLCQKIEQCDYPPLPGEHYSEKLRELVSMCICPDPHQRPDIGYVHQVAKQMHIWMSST
T25 sequence (Q9Y6R4 whole entry): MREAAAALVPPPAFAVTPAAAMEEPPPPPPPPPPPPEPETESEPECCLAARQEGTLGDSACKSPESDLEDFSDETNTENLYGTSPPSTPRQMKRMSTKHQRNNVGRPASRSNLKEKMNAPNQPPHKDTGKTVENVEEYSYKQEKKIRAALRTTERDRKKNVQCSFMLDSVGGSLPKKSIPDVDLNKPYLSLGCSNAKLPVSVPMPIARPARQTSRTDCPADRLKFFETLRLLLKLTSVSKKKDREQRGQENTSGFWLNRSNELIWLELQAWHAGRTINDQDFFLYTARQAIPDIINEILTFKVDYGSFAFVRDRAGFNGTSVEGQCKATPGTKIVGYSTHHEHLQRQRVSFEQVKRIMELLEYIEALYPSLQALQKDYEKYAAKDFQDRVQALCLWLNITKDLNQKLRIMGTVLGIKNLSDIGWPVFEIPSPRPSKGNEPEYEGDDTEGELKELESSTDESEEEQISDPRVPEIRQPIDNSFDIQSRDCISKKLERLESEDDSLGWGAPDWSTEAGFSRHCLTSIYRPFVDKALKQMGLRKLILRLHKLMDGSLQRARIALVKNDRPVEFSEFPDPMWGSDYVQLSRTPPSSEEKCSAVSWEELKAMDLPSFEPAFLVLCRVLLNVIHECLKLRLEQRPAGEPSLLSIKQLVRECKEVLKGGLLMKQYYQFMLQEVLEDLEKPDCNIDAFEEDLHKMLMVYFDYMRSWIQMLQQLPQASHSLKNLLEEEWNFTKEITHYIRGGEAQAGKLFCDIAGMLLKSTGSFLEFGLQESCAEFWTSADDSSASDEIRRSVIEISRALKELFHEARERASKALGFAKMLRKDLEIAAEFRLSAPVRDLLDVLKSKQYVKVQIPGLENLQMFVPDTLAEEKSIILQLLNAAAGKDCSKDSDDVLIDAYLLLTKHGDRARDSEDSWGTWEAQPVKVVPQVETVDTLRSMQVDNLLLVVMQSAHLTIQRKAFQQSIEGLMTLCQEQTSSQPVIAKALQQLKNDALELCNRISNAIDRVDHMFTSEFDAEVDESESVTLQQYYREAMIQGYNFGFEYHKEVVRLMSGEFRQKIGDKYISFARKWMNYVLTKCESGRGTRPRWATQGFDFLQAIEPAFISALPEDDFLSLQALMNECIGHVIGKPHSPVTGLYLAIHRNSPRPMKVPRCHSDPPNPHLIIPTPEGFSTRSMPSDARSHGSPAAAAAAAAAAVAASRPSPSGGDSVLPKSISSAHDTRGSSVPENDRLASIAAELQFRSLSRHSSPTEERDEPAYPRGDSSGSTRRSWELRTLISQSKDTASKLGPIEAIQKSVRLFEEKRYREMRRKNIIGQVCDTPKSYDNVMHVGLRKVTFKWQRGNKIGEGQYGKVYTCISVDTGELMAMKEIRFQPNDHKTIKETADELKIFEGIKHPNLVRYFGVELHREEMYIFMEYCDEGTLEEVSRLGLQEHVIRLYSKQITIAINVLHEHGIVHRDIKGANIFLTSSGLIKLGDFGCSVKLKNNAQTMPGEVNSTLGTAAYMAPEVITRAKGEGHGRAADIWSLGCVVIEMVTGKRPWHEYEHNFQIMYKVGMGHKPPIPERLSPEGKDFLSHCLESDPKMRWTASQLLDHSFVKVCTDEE
T21 sequence (O14920 whole entry): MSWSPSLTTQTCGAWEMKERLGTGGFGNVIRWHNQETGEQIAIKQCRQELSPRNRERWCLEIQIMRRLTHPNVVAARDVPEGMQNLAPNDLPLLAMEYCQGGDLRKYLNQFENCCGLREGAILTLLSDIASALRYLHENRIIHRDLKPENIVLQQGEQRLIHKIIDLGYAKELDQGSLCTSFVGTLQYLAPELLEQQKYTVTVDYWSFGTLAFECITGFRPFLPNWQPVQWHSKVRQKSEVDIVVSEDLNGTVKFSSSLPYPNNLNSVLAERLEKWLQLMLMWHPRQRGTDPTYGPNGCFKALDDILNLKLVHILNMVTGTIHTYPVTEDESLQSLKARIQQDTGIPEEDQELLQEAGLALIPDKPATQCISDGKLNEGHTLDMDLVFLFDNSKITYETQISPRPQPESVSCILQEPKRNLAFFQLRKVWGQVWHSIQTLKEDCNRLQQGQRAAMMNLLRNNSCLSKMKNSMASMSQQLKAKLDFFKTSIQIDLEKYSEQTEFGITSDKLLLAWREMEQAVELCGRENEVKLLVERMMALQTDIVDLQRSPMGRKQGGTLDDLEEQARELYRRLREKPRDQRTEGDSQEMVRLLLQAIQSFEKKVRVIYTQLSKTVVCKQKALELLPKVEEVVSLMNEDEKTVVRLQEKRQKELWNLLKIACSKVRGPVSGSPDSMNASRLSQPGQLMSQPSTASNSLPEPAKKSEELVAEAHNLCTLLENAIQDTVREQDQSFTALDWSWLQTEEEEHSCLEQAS
T20 sequence (P49841 whole entry): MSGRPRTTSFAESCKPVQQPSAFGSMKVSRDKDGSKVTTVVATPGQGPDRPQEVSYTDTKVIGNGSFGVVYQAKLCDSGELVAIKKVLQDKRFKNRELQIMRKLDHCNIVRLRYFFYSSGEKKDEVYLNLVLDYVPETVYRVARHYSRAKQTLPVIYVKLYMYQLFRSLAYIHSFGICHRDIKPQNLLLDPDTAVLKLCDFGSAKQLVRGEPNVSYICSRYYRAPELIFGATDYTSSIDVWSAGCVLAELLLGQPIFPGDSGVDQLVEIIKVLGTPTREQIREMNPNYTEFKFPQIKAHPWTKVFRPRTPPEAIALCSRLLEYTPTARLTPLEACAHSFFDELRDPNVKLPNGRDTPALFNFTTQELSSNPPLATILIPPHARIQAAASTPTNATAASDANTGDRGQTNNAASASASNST
T40 sequence (Q15759 whole entry): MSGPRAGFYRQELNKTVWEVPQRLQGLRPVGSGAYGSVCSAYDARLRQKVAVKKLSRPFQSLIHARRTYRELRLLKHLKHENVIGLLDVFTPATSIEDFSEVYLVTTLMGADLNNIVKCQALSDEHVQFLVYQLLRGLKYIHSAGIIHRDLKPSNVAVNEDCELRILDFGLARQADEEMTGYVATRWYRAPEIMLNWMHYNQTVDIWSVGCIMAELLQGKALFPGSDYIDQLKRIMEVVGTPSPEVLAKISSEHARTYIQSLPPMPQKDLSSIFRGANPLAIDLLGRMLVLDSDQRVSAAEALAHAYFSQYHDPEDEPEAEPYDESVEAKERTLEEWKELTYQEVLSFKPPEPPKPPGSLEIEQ

remaining binding at 1 µM (ABL1EP): 77%
remaining binding at 1 µM (ABL1EnP): 76%
remaining binding at 1 µM (ABL2): 97%
remaining binding at 1 µM (ACVR1B (ALK4)): 100%
remaining binding at 1 µM (AURKB): 97%
remaining binding at 1 µM (AXL): 96%
remaining binding at 1 µM (BMPR1A (ALK3)): 77%
remaining binding at 1 µM (BRAF): 65%
remaining binding at 1 µM (BTK): 99%
remaining binding at 1 µM (CDK3): 100%
remaining binding at 1 µM (DYRK1B): 90%
remaining binding at 1 µM (EGFR): 71%
remaining binding at 1 µM (EPHA2): 100%
remaining binding at 1 µM (ERBB2): 100%
remaining binding at 1 µM (ERBB4): 100%
remaining binding at 1 µM (ERK1): 97%
remaining binding at 1 µM (FAK): 97%
remaining binding at 1 µM (FGFR2): 100%
remaining binding at 1 µM (FYN): 100%
remaining binding at 1 µM (GSK3B): 95%
remaining binding at 1 µM (IKKEbeta): 84%
remaining binding at 1 µM (JNK2): 100%
remaining binding at 1 µM (KIT(V559D,T670I)): 100%
remaining binding at 1 µM (LKB1): 96%
remaining binding at 1 µM (MAP3K4): 100%
remaining binding at 1 µM (MAPKAPK2): 96%
remaining binding at 1 µM (MEK1): 89%
remaining binding at 1 µM (MET): 80%
remaining binding at 1 µM (MINK): 51%
remaining binding at 1 µM (MKNK2): 100%
remaining binding at 1 µM (NEK6): 100%
remaining binding at 1 µM (PDGFRB): 20%
remaining binding at 1 µM (PDPK1): 84%
remaining binding at 1 µM (PIM2): 89%
remaining binding at 1 µM (PLK3): 90%
remaining binding at 1 µM (PLK4): 100%
remaining binding at 1 µM (RIPK2): 88%
remaining binding at 1 µM (TGFBR1 (ALK5)): 96%
remaining binding at 1 µM (VEGFR2): 95%
remaining binding at 1 µM (p38Ebeta): 100%
SMILES: O=c1c2cc(-c3ccnc4ccccc34)ccc2ncn1-c1ccc(N2CCOCC2)cc1 [compound 16, 3-(4-Morpholinophenyl)-6-(quinolin-4-yl)quinazolin-4(3H)-one]
